For data set [1], the system named is MDA-MB241 cell line (malignant breast cells). The note with it: 24 hours. The protocol:
MTT assay method was applied for evaluating the effects of Boron complex on MDA-MB241 cell line (malignant breast cells) in in vitro environment.
This is due to the fact that since food composition was used in the synthesis of the drug, tumor cells think that they are provided with food compostions. But after a while the number of cells will decrease by the drug. For different concentrations of Boron including 5 mg, 10 mg, 25 mg, 50 mg and 100 mg, these decreases are equal to 80, 50, 64, 79, and 36. After 48 hours similar results with little differences have been observed with 24 hours time interval.

For data set [2] the following is noted: cancerous mice; in vitro and in vivo tests.
Description: In this research, a new smart drug, Enriched Boron-10 Calcium Fructo Borate (E^10BCFB), was investigated for using in cancer cells treatment in BNCT methods. […] E^10BCFB is in fact an artificial Calcium Fructo-Borate which is synthesized chemically with 10-Boron.
Data set [3] deals with breast cancer cells MDA-MB-231.

Where two headings read alike, the source gives them in different places.

As to “Enriched 10-Boron Calcium Fructo Borate [E^10BCFB]”, the “decrease of the number of cells (MTT)” value in data set [1] (concentration of Boron 5 mg) is reported as 80; in data set [1] (concentration of Boron 10 mg), 50; in data set [1] (concentration of Boron 25 mg) it was 64; in data set [1] (concentration of Boron 50 mg) it was 79; in data set [1] (concentration of Boron 100 mg) it was 36. For the same substance, where the note is “3 hours after injection of 41.1 mg complex per 30 gram animal weight”, the “concentration ratio of tumor to the 10-Boron concentration in the blood” value is on record as “about 4.5”. For the same substance, the “concentration of 10-Boron in the blood” value (3 hours after intraperitoneal injection of 41.1 mg complex per 30 gram animal weight, blood) is “about 6.1 ppm”. The “accumulation of 10-Boron in tumor cells” value (3 hours after intraperitoneal injection of 41.1 mg complex per 30 gram animal weight, tumor) is “about 27 ppm”. The “safety of the drug” value in data set [2] is “safe”. Besides, the “growth of breast cancer cells” value in data set [3] (MDA-MB-231) is “prevents the growth of breast cancer cells”. In data set [3] (tumor cells treated with the drug), the Caspase-3 activity entry was “increases the Caspase-3 activity”.

(Values after patent publication US9327025B2, “Enriched 10-boron composition for cancer therapy and a method of synthesizing the same” (priority 2012, dated 2016).)
